According to US20170100367A1, “USE OF ERIBULIN IN THE TREATMENT OF CANCER” (priority 2014, published 2017):

Experiments:
[1] = Pharmacokinetics study of carboplatin in tumor after administration of eribulin in MDA-MB-231 s.c. xenograft model; type: in vivo, nude mice; conditions: for Concentration of Carboplatin in MDA-MB-231 Tumor, AUC (0-8): tumor homogenate
Protocol: Pharmacokinetics Study of Carboplatin in Tumor after Administration of Eribulin in Human Breast Cancer Cell Line MDA-MB-231 s.c. Xenograft Models
Female nude mice, once acclimatised, were subcutaneously injected with 5×10^6 MDA-MB-231 cells in a 1:1 ratio (50 μL each) with matrigel in a volume of 0.1 mL in phosphate buffered saline, on the right flank area using a 26-gauge needle. This ensured that sufficient mice with tumors in the volume range of approximately 200˜300 mm^3 were available for the study. When the tumors reached an average size of approximately 250 mm^3, 30 mice were selected. The study included an initial experiment containing 24 mice. The first group received eribulin mesylate dosed i.v. as a single dose of 3 mg/kg; for a 20 g animal 200 μL of 0.3 mg/mL eribulin mesylate solution was dosed. To control for tumor size, a vehicle control group (vehicle B) consisting of 27 mice, was introduced before carboplatin dosing. The mice in this group were chosen so that their tumor size matches the tumor size of the eribulin mesylate-treated mice group. Vehicle B group was split in 2 groups, first one of 3 mice which received vehicle (saline) i.v. injection and the second group of 24 mice received carboplatin i.v. injection. On day 1 of vehicle B or on day 15 after the treatment of eribulin, 100 mg/kg carboplatin was administered to all mice intravenously and tumor samples were collected under anesthesia at the assigned time points 0.083, 0.25, 0.5, 1, 4, 8, 24, and 48 hours (n=3 for each time point). Tumors were homogenized with 3 times their respective weights of 1×PBS using a Mini Bead Beater-96, and the concentration of carboplatin in each tumor homogenate was analyzed by a validated LC-MS method.
The PK parameters of carboplatin in tumors were calculated using a non-compartmental approach (Pheonix/WinNonlin v. 6.3, Pharsight; Mountain View, Calif.). The time point at which the concentration of carboplatin highest was denoted as tmax. The highest concentration of carboplatin was denoted as Cmax. The observed area under the tumor concentration versus time curve from time zero to the last quantifiable time point (AUC (0-t)) and to infinity (AUC (0-inf)) were calculated using the trapezoidal method. The AUC (0-inf) was calculated as AUC (0-t)+AUC extrap, where AUC extrap represents the extrapolated AUC from the last quantifiable time point (Clast) to infinity, and was calculated as Clast/λZ. Lamda z (λZ), slope of the concentration versus time curve during the terminal phase, was determined by linear regression.
The mean, standard deviation (SD) and percent coefficient of variation (% CV) of tumor concentrations were calculated using Excel 2010 (Microsoft, Redmond, Wash.). The mean, SD, and % CV for the PK parameters of carboplatin were determined in WinNonlin or Excel 2010. […]
An AB Sciex (Foster City, Calif.) API5000 mass spectrometer, with electrospray ionization under positive ion mode, was used for sample analysis. The collision-activated dissociation (CAD) with N2 was used to generate structure characteristic product ions for quantitation.
The peak areas of carboplatin were integrated using Analyst 1.6 (AB Sciex, Foster City, Calif.), and the areas were imported into Watson 7.2 (Thermo Fisher Scientific, Waltham, Mass.). Internal standard, tolbutamide, was added to each sample, excluded blank without IS, however IS was not used for quantitation due to inconsistent instrument response of tolbutamide in all analytical runs. […]

[2] = system: human breast cancer cell line MDA-MB-231 s.c. xenograft; assay: Antitumor effect of capecitabine after eribulin treatment in MDA-MB-231 s.c. xenograft model; type: in vivo, nude mice; conditions: capecitabine 540 mg/kg QD8 p.o. after eribulin 1.0 mg/kg QD1 i.v.; MDA-MB-231 xenograft; FIG. 1
Protocol: Antitumor Effect of Capecitabine after Eribulin Treatment in Human Breast Cancer Cell Line MDA-MB-231 s.c. Xenograft Models
MDA-MB-231 cells were cultured with RPMI 1640 medium containing 10% (v/v) FBS. Cultured tumor cells were suspended in 50% (v/v) BD Matrigel (BD bioscience, San Jose, Calif.) at a density of 10×10^7 cells/mL for s.c. inoculation into nude mice. A 0.1-mL aliquot of the cell suspension was transplanted subcutaneously into the right flank region of mice. Tumor volumes were calculated according to the following formula: (width [mm]^2×length [mm])/2. Tumor weights were calculated according to the following formula: tumor volume (mm^3)×1 (mg/mm^3). In the MDA-MB-231 xenograft model, when the mean tumor volume reached between 100 and 300 mg (1 mm^3=1 mg) on day 1, nude mice were randomly divided into each group. Control (no treatment); capecitabine, 540 mg/kg, QD8, p.o.; or eribulin, 1.0 mg/kg, QD1, i.v. was administered on day 1. In the eribulin group, eribulin-treated mice were randomly divided into two groups. […] The administration volume (0.1 mL/10 g body weight) was calculated based on the body weight before administration. The tumor volume was measured two times per week. […] The data was analyzed by the Dunnett multiple comparison test to compare two groups (GraphPad Prism version 6.02 (GraphPad Software Inc., La Jolla, Calif.)). […]

[3] = eribulin mesylate 3 mg/kg i.v., carboplatin 100 mg/kg i.v. on day 15

N.N.O=C([O-])C1(C(=O)[O-])CCC1.[Pt+2] [Carboplatin, carboplatin]
Concentration of Carboplatin in MDA-MB-231 Tumor, AUC (0-8) ([1]; Eribulin pretreatment (eribulin mesylate 3 mg/kg i.v. single dose), carboplatin 100 mg/kg i.v. on day 15): 50504.02 ng·h/g
Concentration of Carboplatin in MDA-MB-231 Tumor, AUC (0-8) ([1]; Vehicle B group (no eribulin), carboplatin 100 mg/kg i.v.): 36864.98 ng·h/g
AUC (0-8) of carboplatin in tumor, eribulin pretreatment group relative to Vehicle B group [1, 3]: about 1.37 fold
Cmax of carboplatin in tumor, eribulin pretreatment group relative to Vehicle B group [1, 3]: about 2.20 fold
exposure of carboplatin in tumors ([1]; eribulin pretreatment group mice, Table 1, FIG. 4): high exposure

CCCCCOC(=O)Nc1nc(=O)n([C@@H]2O[C@H](C)[C@@H](O)[C@H]2O)cc1F [capecitabine]
antitumor activity of capecitabine with eribulin pretreatment compared with that without pretreatment [2]: significantly enhanced
